Patent US20160052923A1, “PIPERAZINE AND HOMOPIPERAZINE DERIVATIVES AS HIV […]” (priority 2013, published 2016)
pEC50: −log10 of the molar value. Where two headings read alike, the source gives them in different places.

Tested on: HIV-1 LAI envelope single-round infectious reporter virus
Test: Single-round infectious HIV-1 LAI luciferase reporter virus infection of MT2 cells
Format: cell-based
Details: Human immunodeficiency virus 1, MT2, 72 h
From the text: • Virus production—Human embryonic Kidney cell line, 293T (HEK 293T), was propagated in Dulbecco's Modified Eagle Medium (Invitrogen, Carlsbad, Calif.) containing 10% fetal bovine serum (FBS, Sigma, St. Louis, Mo.). The human T-cell leukemia cell MT2 (AIDS Research and Reference Reagent Program, Cat. 237) was propagated in RPMI 1640 (Invitrogen, Carlsbad, Calif.) containing 10% fetal bovine serum (FBS, Hyclone, Logan, Utah) • Virus infection—Single-round infectious reporter virus was produced by co-transfecting HEK 293T cells with plasmide expressing the HIV-1 LAI envelope along with a plasmid containing an HIV-1 LAI proviral cDNA with the envelope gene replaced by a firefly luciferase reporter gene (Chen et al., Ref. 41). Transfections were performed using lipofectAMINE PLUS reagent as described by the manufacturer (Invitrogen, Carlsbad, Calif.).
• 1. MT2 cells were plated in black, 384 well plates at a cell density of 5×10^3 cells per well in 25 μl RPMI 1640 containing 10% FBS. • 2. Compound (diluted in dimethylsulfoxide and growth medium) was added to cells at 12.5 μl/well, so that the final assay concentration would be ≦50 nM. • 3. 12.5 μl of single-round infectious reporter virus in Dulbecco's Modified Eagle Medium was added to the plated cells and compound at an approximate multiplicity of infection (MOI) of 0.01, resulting in a final volume of 50 μl per well. • 4. Virus-infected cells were incubated at 37 degrees Celsius in a CO2 incubator and harvested 72 h after infection. • 5. Viral infection was monitored by measuring luciferase expression in the infected cells using a luciferase reporter gene assay kit (Steady-Glo, Promega, Madison, Wis.) as described by the manufacturer. Luciferase activity was then quantified by measuring luminescence using an EnVision Multilabel Plate Readers (PerkinElmer, Waltham, Mass.). • 6. The percent inhibition for each compound was calculated by quantifying the level of luciferase expression in cells infected in the presence of each compound as a percentage of that observed for cells infected in the absence of compound and subtracting such a determined value from 100. • 7. An EC50 provides a method for comparing the antiviral potency of the compounds of the invention. The effective concentration for fifty percent inhibition (EC50) was calculated with the Microsoft Excel Xlfit curve fitting software. For each compound, curves were generated from percent inhibition calculated at 10 different concentrations by using a four parameter logistic model (model 205). Table 1 is the key for the data in Table 2.

[1] = read-out: EC50 Group from Table 1

SMILES	pEC50 [1]	pEC50
COc1cnc(-n2cnc(C)n2)c2[nH]cc(C(=O)C(=O)N3CCN(C4(c5ccccc5)CC4)CC3)c12 [Compound 1002]	< 6.30	
O=C(C(=O)N1CCCN(c2nnnn2-c2ccccc2)CC1)c1c[nH]c2c(-n3ccnn3)ncc(F)c12 [Compound 1009]	> 6.30	
CC(c1ccccc1)N1CCN(C(=O)C(=O)c2c[nH]c3c(-n4ccnn4)ncc(F)c23)CC1 (stereo not shown) [Compound 1005]	> 6.30	
O=C(C(=O)N1CCCN(c2ccccn2)CC1)c1c[nH]c2c(-n3ccnn3)ncc(F)c12 [Compound 1008]	> 6.30	7.05
COc1cnc(-n2cnc(C)n2)c2[nH]cc(C(=O)C(=O)N3CCN(C4(c5ccccn5)CC4)CC3)c12 [Compound 1003]	< 6.30	
O=C(C(=O)N1CCN(Cc2ccccn2)CC1)c1c[nH]c2c(-n3ccnn3)ncc(F)c12 [Compound 1006]	> 6.30	
COc1cnc(-n2cnc(C(N)=O)n2)c2[nH]cc(C(=O)C(=O)N3CCN(c4nc5ccccn5n4)CC3)c12 [Compound 1004]	> 6.30	
O=C(C(=O)N1CCN(c2ncnc3ncccc23)CC1)c1c[nH]c2c(-n3ccnn3)ncc(F)c12 [Compound 2008]	> 6.30	8.91
COc1cnc(-n2cnc(C)n2)c2[nH]cc(C(=O)C(=O)N3CCN(c4ccccc4-c4nc5ccccc5s4)CC3)c12 [Compound 1010]	> 6.30	
COc1cnc(-n2ccnn2)c2[nH]cc(C(=O)C(=O)N3CCN(c4ncnc5ncccc45)CC3)c12 [Compound 2007]	> 6.30	
O=C(C(=O)N1CCN(c2cccc3ccccc23)CC1)c1c[nH]c2c(-n3ccnn3)ncc(F)c12 [Compound 2001]	> 6.30	8.53
COc1cnc(-n2cnc(C)n2)c2[nH]cc(C(=O)C(=O)N3CCN(c4cccc5cccnc45)CC3)c12 [Compound 2005]	> 6.30	
COc1cnc(-n2cnc(C)n2)c2[nH]cc(C(=O)C(=O)N3CCN(c4nccc5cccnc45)CC3)c12 [Compound 2002]	> 6.30	
COc1cnc(-n2cnc(C)n2)c2[nH]cc(C(=O)C(=O)N3CCN(C4=NCCc5ccccc54)CC3)c12 [Compound 1001]	> 6.30	9.07
O=C(C(=O)N1CCCN(Cc2ccccc2)CC1)c1c[nH]c2c(-n3ccnn3)ncc(F)c12 [Compound 1007]	> 6.30	
O=C(C(=O)N1CCN(c2cccc3cccnc23)CC1)c1c[nH]c2c(-n3ccnn3)ncc(F)c12 [Compound 2004]	> 6.30	
COc1cnc(-n2cnc(C)n2)c2[nH]cc(C(=O)C(=O)N3CCN(c4ncnc5ncccc45)CC3)c12 [Compound 2006]	> 6.30	
COc1cnc(-n2cnc(C)n2)c2[nH]cc(C(=O)C(=O)N3CCN(c4cccc5ccncc45)CC3)c12 [Compound 2003]	> 6.30	
